Experimental data published in patent publication US10398696B2, “Combinations for treatment of cancer” (Stichting Het Nederlands Kanker Instituut-Antoni van …, priority 2013, dated 2019).

Assays:
[1] = test system: SW837 colon cells; experiment: long-term proliferation assay, SW837; type: cell-based; settings: MEK inhibitor selumetinib (FIG. 3)
[2] = test system: H358 lung cells; experiment: long-term proliferation assay, H358; type: cell-based; settings: MEK inhibitor selumetinib (FIG. 2)
Experimental: FIG. 1 Suppression of ERBB3 by shRNA enhances response to MEK inhibitor. H358 KRAS mutant (Non-Small Cell Lung Cancer (NSCLC) cells were infected with two independent shRNAs targeting ERBB3 as indicated. pLKO vector serves as a control vector. After puromycin selection, cells were cultured in the absence or presence of 1 μM selumetinib for 20 days.
FIG. 2 […] lung cancer cells were cultured in increasing concentration of MEK inhibitor selumetinib alone, EGFR inhibitor gefitinib alone, ERBB2 inhibitor CP724714 alone, EGFR/ERBB2 dual inhibitor afatinib, EGFR/ERBB2 dual inhibitor dacomitinib alone or their combinations as indicated. Cells were harvested, fixed and stained after 21 days.
Recently the use of a kinome-centered synthetic lethal screening approach, which enables the identification of kinases whose inhibition is strongly synergistic with a cancer drug of interest has been described (Prahallad et al., 2012). […] Each of these knockdown vectors has a unique DNA-based molecular bar code identifier, which allows quantification of the relative abundance of each of the shRNA vectors in the presence and absence of drug (Prahallad et al., 2012). […] After 21 days, genomic DNA was isolated from both cells of the treated and untreated populations and the bar codes contained in the shRNA cassettes were recovered by PCR and their abundance determined by deep sequencing. […]

With `COc1cc2ncnc(Nc3ccc(F)c(Cl)c3)c2cc1NC(=O)/C=C/CN1CCCCC1` [dacometinib] the “synergy with MEK inhibition in long-term proliferation assays” value [1] was “strong synergy” and the “synergy with MEK inhibition in long-term proliferation assays” value [2] was “strong synergy”.
